Source: patent publication US20260265195A1, “SARM1 MODULATORS, PREPARATIONS, AND USES THEREOF” (SIRONAX LTD, priority 2022, published 2026)

target: T1, SARM1 (50-724) (Homo sapiens, UniProt Q6SZW1); assay: SARM1 (50-724) enzymatic assay (NMN-activated NAD+ hydrolysis, LC-MS/MS readout); type: biochemical; settings: purified SARM1 (50-724) 2 nM, 200 μM NMN activator, 100 μM NAD+ substrate, 1 h at room temperature, read-out: IC50 (SARM1 inhibitory activity)
T1 construct: Purified SARM1 (50-724) with a final concentration of 2 nM
T1 sequence (Q6SZW1 50-724): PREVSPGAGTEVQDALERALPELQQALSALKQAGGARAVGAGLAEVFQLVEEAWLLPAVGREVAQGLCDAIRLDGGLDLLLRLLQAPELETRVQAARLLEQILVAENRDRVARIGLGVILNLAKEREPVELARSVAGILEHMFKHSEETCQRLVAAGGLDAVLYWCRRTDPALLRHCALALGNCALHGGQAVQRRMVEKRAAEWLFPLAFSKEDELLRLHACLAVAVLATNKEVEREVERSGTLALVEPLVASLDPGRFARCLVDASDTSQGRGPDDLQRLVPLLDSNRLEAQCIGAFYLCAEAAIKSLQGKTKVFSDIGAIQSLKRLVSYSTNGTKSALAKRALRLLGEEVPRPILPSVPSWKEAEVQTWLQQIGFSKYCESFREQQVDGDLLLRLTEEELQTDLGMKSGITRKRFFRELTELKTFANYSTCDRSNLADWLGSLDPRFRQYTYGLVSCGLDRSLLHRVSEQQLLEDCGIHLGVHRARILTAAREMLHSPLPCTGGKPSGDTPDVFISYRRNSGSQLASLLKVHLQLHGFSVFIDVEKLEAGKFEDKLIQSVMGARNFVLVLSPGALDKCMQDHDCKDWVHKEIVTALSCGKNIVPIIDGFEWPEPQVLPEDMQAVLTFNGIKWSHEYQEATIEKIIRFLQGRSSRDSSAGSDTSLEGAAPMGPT
Procedure: Example II. SARM1 (50-724) Enzymatic Assay
An enzymatic assay was performed in a 384-well plate using Dulbecco's phosphate-buffered saline (PBS) as the reaction buffer. Purified SARM1 (50-724) with a final concentration of 2 nM was pre-incubated with a test compound at 1% DMSO final assay concentration for 15 min at room temperature. The reaction was initiated by adding a mixture of 200 μM nicotinamide mononucleotide (NMN) as activator and 100 μM NAD^+ as substrate. After 1 h of incubation at room temperature, the reaction was terminated with 10 times volume of 70% acetonitrile, then centrifuged at 3800 rpm for 10 min. The samples were analyzed using LC-MS/MS after diluted to a proper concentration by 10 mM ammonium acetate (pH 9.75).
ND means “not determined.”

SMILES	IC50
Cc1ccc2[nH]c(C(=O)N(C)c3ccc(Cl)c(C(F)(F)F)c3)c(CO)c2c1 [Compound 11, N-(4-chloro-3-(trifluoromethyl)phenyl)-3-(hydroxymethyl)-N,5-dimethyl-1H-indole-2-carboxamide]	≥ 1000 nM
O=C(c1nc2cc(C(F)(F)F)ccc2[nH]1)N(CC1COC1)c1cccc(Cl)c1Cl [Compound 105, N-(2,3-dichlorophenyl)-N-(oxetan-3-ylmethyl)-5-(trifluoromethyl)-1H-benzo[d]imidazole-2-carboxamide]	≤ 100 nM
Cc1ccc2[nH]c(C(=O)N(CCO)C3CCCC3)nc2c1 [Compound 49, N-cyclopentyl-N-(2-hydroxyethyl)-5-methyl-1H-benzo[d]imidazole-2-carboxamide]	101 to 500 nM
O=C(c1nc2cc(C(F)(F)F)ccc2[nH]1)N(CC1(O)CC1)c1cccc(Cl)c1Cl [Compound 197, N-(2,3-dichlorophenyl)-N-((1-hydroxycyclopropyl)methyl)-5-(trifluoromethyl)-1H-benzo[d]imidazole-2-carboxamide]	≤ 100 nM
Cc1ccc2[nH]c(C(=O)N(C)C3CCCC3)nc2c1C#N [Compound 97, 4-cyano-N-cyclopentyl-N,5-dimethyl-1H-benzo[d]imidazole-2-carboxamide]	101 to 500 nM
Cc1ccc2[nH]c(C(=O)N(C)C3CCCC3)nc2n1 [Compound 52, N-cyclopentyl-N,5-dimethyl-1H-imidazo[4,5-b]pyridine-2-carboxamide]	≥ 1000 nM
NC(=O)C(F)(F)CN(C(=O)c1nc2cc(C(F)(F)F)ccc2[nH]1)c1cccc(Cl)c1Cl [Compound 107, N-(3-amino-2,2-difluoro-3-oxopropyl)-N-(2,3-dichlorophenyl)-5-(trifluoromethyl)-1H-benzo[d]imidazole-2-carboxamide]	≤ 100 nM
Cc1ccc2[nH]c(C(=O)N(C)c3ccc(Cl)cc3)c(CO)c2c1 [Compound 25, N-(4-chlorophenyl)-3-(hydroxymethyl)-N,5-dimethyl-1H-indole-2-carboxamide]	≥ 1000 nM
CS(=N)(=O)CCCN(C(=O)c1nc2cc(C(F)(F)F)ccc2[nH]1)c1cccc(F)c1Cl (stereo not shown) [Compound 224, N-(2-chloro-3-fluorophenyl)-N-(3-(S-methylsulfonimidoyl)propyl)-5-(trifluoromethyl)-1H-benzo[d]imidazole-2-carboxamide]	≤ 100 nM
O=C(c1nc2cc(C(F)(F)F)ccc2[nH]1)N(CC(O)CO)c1cccc(Cl)c1Cl (racemic) [Compound 131, N-(2,3-dichlorophenyl)-N-(2,3-dihydroxypropyl)-5-(trifluoromethyl)-1H-benzo[d]imidazole-2-carboxamide]	≤ 100 nM

The next lines start with the values.

IC50	SMILES
101 to 500 nM	CN(C(=O)c1[nH]c2ccc(C(F)(F)F)cc2c1CO)C1CCCC1 [Compound 28, N-cyclopentyl-3-(hydroxymethyl)-N-methyl-5-(trifluoromethyl)-1H-indole-2-carboxamide]
501 to 1000 nM	Cc1ccc2[nH]c(C(=O)N(C)c3c(F)cccc3F)c(CO)c2c1 [Compound 2, N-(2,6-difluorophenyl)-3-(hydroxymethyl)-N,5-dimethyl-1H-indole-2-carboxamide]
≤ 100 nM	CC1(C)OCC(CN(C(=O)c2nc3cc(C(F)(F)F)ccc3[nH]2)c2cccc(Cl)c2Cl)O1 (racemic) [Compound 173, N-(2,3-dichlorophenyl)-N-((2,2-dimethyl-1,3-dioxolan-4-yl)methyl)-5-(trifluoromethyl)-1H-benzo[d]imidazole-2-carboxamide]
≤ 100 nM	O=C(c1nc2cc(C3CC3)ccc2[nH]1)N(CCO)c1cccc(Cl)c1Cl [Compound 190]
≥ 1000 nM	Cc1ccc2[nH]c(C(=O)N(C)c3ccc(C#N)cc3Cl)c(CO)c2c1 [Compound 9, N-(2-chloro-4-cyanophenyl)-3-(hydroxymethyl)-N,5-dimethyl-1H-indole-2-carboxamide]
101 to 500 nM	COCCc1c(C(=O)N(C)C2CCCC2)[nH]c2ccc(C)cc12 [Compound 37, N-cyclopenty1-3-(2-methoxyethyl)-N,5-dimethyl-1H-indole-2-carboxamide]
